Source: ChEMBL document CHEMBL3885881, “DrugMatrix”

Organism: Rattus norvegicus
Assay: DrugMatrix - Regimen: Daily Repeat
Type: toxicity, organism-based, Sprague-Dawley
Parameters: regimen Daily Repeat, gender Male, age 6-8 weeks
Conditions: in vivo, ip, route intraperitoneal, vehicle 100 % SALINE; for ABSOLUTE BASOPHIL / ABSOLUTE EOSINOPHIL / ABSOLUTE LYMPHOCYTE / ABSOLUTE MONOCYTE / ABSOLUTE SEGMENTED NEUTROPHIL / BASOPHIL / EOSINOPHIL / ERYTHROCYTE COUNT / HEMATOCRIT / HEMOGLOBIN / LEUKOCYTE COUNT / LYMPHOCYTE / MEAN CORPUSCULAR HEMOGLOBIN / MEAN CORPUSCULAR HEMOGLOBIN CONCENTRATION / MEAN CORPUSCULAR VOLUME / MONOCYTE / NEUTROPHIL / PLATELET COUNT: tissue Blood
[1] = 0 mg/kg, 120 h, dose level Control, time 5 day
[2] = 0 mg/kg, 120 h, tissue Plasma, dose level Control, time 5 day
[3] = 0 mg/kg, […], dose level Control, time 14 day
[4] = 0 mg/kg, […], dose level Control, time 28 day
[5] = 0 mg/kg, […], tissue Plasma, dose level Control, time 14 day
[6] = 0 mg/kg, […], tissue Plasma, dose level Control, time 28 day
[7] = 2 mg/kg, 120 h, dose level High, time 5 day
[8] = 2 mg/kg, 120 h, tissue Plasma, dose level High, time 5 day
[9] = 2 mg/kg, […], dose level High, time 14 day
[10] = 2 mg/kg, […], dose level High, time 28 day

Q: What does the source list for CADMIUM DICHLORIDE?
A: ABSOLUTE BASOPHIL [1]: 32 cells/µL; ABSOLUTE EOSINOPHIL [1]: 110 cells/µL; ABSOLUTE LYMPHOCYTE [1]: 6630 cells/µL; ABSOLUTE MONOCYTE [1]: 140 cells/µL; ABSOLUTE SEGMENTED NEUTROPHIL [1]: 1170 cells/µL; BASOPHIL [1]: 0.38%; EOSINOPHIL [1]: 1.28%; ERYTHROCYTE COUNT [1]: 7.45 x10E6/uL; HEMATOCRIT [1]: 45.74%; HEMOGLOBIN [1]: 14.72 G/DL; LEUKOCYTE COUNT [1]: 8.11 x10E3/uL; LYMPHOCYTE [1]: 81.3%; MEAN CORPUSCULAR HEMOGLOBIN [1]: 19.76 pg; MEAN CORPUSCULAR HEMOGLOBIN CONCENTRATION [1]: 32.16 G/DL; MEAN CORPUSCULAR VOLUME [1]: 61.38 fL; MONOCYTE [1]: 1.76%; NEUTROPHIL [1]: 14.9%; PLATELET COUNT [1]: 1322.4 x10E3/uL; ALANINE AMINOTRANSFERASE [2]: 25.8 u/L; ALBUMIN [2]: 3.64 G/DL; ASPARTATE AMINOTRANSFERASE [2]: 81.4 u/L; BLOOD UREA NITROGEN [2]: 14.4 mg/dL; CHOLESTEROL [2]: 69.2 mg/dL; CREATINE PHOSPHOKINASE [2]: 303.2 u/L; CREATININE [2]: 0.56 mg/dL; GLUCOSE [2]: 125.4 mg/dL; LACTATE DEHYDROGENASE [2]: 105.4 u/L; LIPASE [2]: 22.4 u/L; POTASSIUM [2]: 5.52 MEQ/L; SODIUM [2]: 147 MEQ/L; TOTAL BILIRUBIN [2]: 0.2 mg/dL; TOTAL PROTEIN [2]: 6.1 G/DL; URIC ACID [2]: 1.06 mg/dL; ABSOLUTE BASOPHIL [3]: 130 cells/µL; ABSOLUTE EOSINOPHIL [3]: 140 cells/µL; ABSOLUTE LYMPHOCYTE [3]: 13500 cells/µL; ABSOLUTE MONOCYTE [3]: 400 cells/µL; ABSOLUTE SEGMENTED NEUTROPHIL [3]: 2330 cells/µL; BASOPHIL [3]: 0.72%; EOSINOPHIL [3]: 0.86%; ERYTHROCYTE COUNT [3]: 7.74 x10E6/uL; HEMATOCRIT [3]: 45.98%; LEUKOCYTE COUNT [3]: 16.61 x10E3/uL; LYMPHOCYTE [3]: 81.34%; MEAN CORPUSCULAR HEMOGLOBIN [3]: 18 pg; MEAN CORPUSCULAR HEMOGLOBIN CONCENTRATION [3]: 30.22 G/DL; MEAN CORPUSCULAR VOLUME [3]: 59.4 fL; MONOCYTE [3]: 2.46%; NEUTROPHIL [3]: 14.14%; PLATELET COUNT [3]: 1445.5 x10E3/uL; ABSOLUTE BASOPHIL [4]: 91 cells/µL; ABSOLUTE EOSINOPHIL [4]: 110 cells/µL; ABSOLUTE LYMPHOCYTE [4]: 9910 cells/µL; ABSOLUTE MONOCYTE [4]: 210 cells/µL; ABSOLUTE SEGMENTED NEUTROPHIL [4]: 1560 cells/µL; BASOPHIL [4]: 0.77%; EOSINOPHIL [4]: 0.92%; ERYTHROCYTE COUNT [4]: 8.21 x10E6/uL; HEMATOCRIT [4]: 47.53%; HEMOGLOBIN [4]: 15.65 G/DL; LEUKOCYTE COUNT [4]: 11.91 x10E3/uL; LYMPHOCYTE [4]: 83.34%; MEAN CORPUSCULAR HEMOGLOBIN [4]: 19.07 pg; MEAN CORPUSCULAR HEMOGLOBIN CONCENTRATION [4]: 32.93 G/DL; MEAN CORPUSCULAR VOLUME [4]: 57.9 fL; MONOCYTE [4]: 1.68%; NEUTROPHIL [4]: 12.97%; PLATELET COUNT [4]: 1323.8 x10E3/uL; ALANINE AMINOTRANSFERASE [5]: 31.6 u/L; ALBUMIN [5]: 3.66 G/DL; ALKALINE PHOSPHATASE [5]: 228.6 u/L; ASPARTATE AMINOTRANSFERASE [5]: 79.6 u/L; BLOOD UREA NITROGEN [5]: 11.2 mg/dL; CHLORIDE [5]: 107 MEQ/L; CHOLESTEROL [5]: 57 mg/dL; CREATININE [5]: 0.5 mg/dL; GLUCOSE [5]: 124.4 mg/dL; LACTATE DEHYDROGENASE [5]: 106.4 u/L; LIPASE [5]: 24.4 u/L; PHOSPHORUS [5]: 10.52 mg/dL; POTASSIUM [5]: 6.34 MEQ/L; SODIUM [5]: 149.2 MEQ/L; TOTAL BILIRUBIN [5]: 0.2 mg/dL; TOTAL PROTEIN [5]: 6.48 G/DL; URIC ACID [5]: 0.94 mg/dL; ALANINE AMINOTRANSFERASE [6]: 30 u/L; ALBUMIN [6]: 3.71 G/DL; ALKALINE PHOSPHATASE [6]: 186.8 u/L; ASPARTATE AMINOTRANSFERASE [6]: 78.2 u/L; BLOOD UREA NITROGEN [6]: 14.2 mg/dL; CHOLESTEROL [6]: 44.9 mg/dL; CREATINE PHOSPHOKINASE [6]: 334.3 u/L; CREATININE [6]: 0.6 mg/dL; GLUCOSE [6]: 147.2 mg/dL; LACTATE DEHYDROGENASE [6]: 123.1 u/L; LIPASE [6]: 9.6 u/L; PHOSPHORUS [6]: 10.01 mg/dL; POTASSIUM [6]: 6.57 MEQ/L; SODIUM [6]: 149.5 MEQ/L; TOTAL BILIRUBIN [6]: 0.21 mg/dL; TOTAL PROTEIN [6]: 6.66 G/DL; URIC ACID [6]: 1.26 mg/dL; ABSOLUTE BASOPHIL [7]: 82 cells/µL; ABSOLUTE EOSINOPHIL [7]: 170 cells/µL; ABSOLUTE LYMPHOCYTE [7]: 6790 cells/µL; ABSOLUTE MONOCYTE [7]: 750 cells/µL; ABSOLUTE SEGMENTED NEUTROPHIL [7]: 6.49 CELLS/uL; BASOPHIL [7]: 0.52%; EOSINOPHIL [7]: 1.36%; ERYTHROCYTE COUNT [7]: 7.45 x10E6/uL; HEMATOCRIT [7]: 43.86%; HEMOGLOBIN [7]: 14.46 G/DL; LEUKOCYTE COUNT [7]: 14.43 x10E3/uL; LYMPHOCYTE [7]: 52.2%; MEAN CORPUSCULAR HEMOGLOBIN [7]: 19.4 pg; MEAN CORPUSCULAR HEMOGLOBIN CONCENTRATION [7]: 32.92 G/DL; MEAN CORPUSCULAR VOLUME [7]: 59.02 fL; MONOCYTE [7]: 5.12%; NEUTROPHIL [7]: 39.98%; PLATELET COUNT [7]: 1991.4 x10E3/uL; ALANINE AMINOTRANSFERASE [8]: 32 u/L; ALBUMIN [8]: 3.14 G/DL; ALKALINE PHOSPHATASE [8]: 100.2 u/L; ASPARTATE AMINOTRANSFERASE [8]: 134 u/L; BLOOD UREA NITROGEN [8]: 16.8 mg/dL; CHOLESTEROL [8]: 54.8 mg/dL; CREATINE PHOSPHOKINASE [8]: 243.4 u/L; CREATININE [8]: 0.44 mg/dL; GLUCOSE [8]: 120.4 mg/dL; LACTATE DEHYDROGENASE [8]: 161.2 u/L; LIPASE [8]: 76.6 u/L; PHOSPHORUS [8]: 11.2 mg/dL; POTASSIUM [8]: 6.38 MEQ/L; SODIUM [8]: 146 MEQ/L; TOTAL BILIRUBIN [8]: 0.2 mg/dL; TOTAL PROTEIN [8]: 5.32 G/DL; URIC ACID [8]: 1.7 mg/dL; ABSOLUTE BASOPHIL [9]: 180 cells/µL; ABSOLUTE EOSINOPHIL [9]: 86 cells/µL; ABSOLUTE LYMPHOCYTE [9]: 8270 cells/µL; ABSOLUTE MONOCYTE [9]: 890 cells/µL; ABSOLUTE SEGMENTED NEUTROPHIL [9]: 6.16 CELLS/uL; BASOPHIL [9]: 1.22%; EOSINOPHIL [9]: 0.6%; ERYTHROCYTE COUNT [9]: 7.03 x10E6/uL; HEMATOCRIT [9]: 40.98%; HEMOGLOBIN [9]: 13.48 G/DL; LEUKOCYTE COUNT [9]: 15.72 x10E3/uL; LYMPHOCYTE [9]: 52.14%; MEAN CORPUSCULAR HEMOGLOBIN [9]: 19.2 pg; MEAN CORPUSCULAR HEMOGLOBIN CONCENTRATION [9]: 32.92 G/DL; MEAN CORPUSCULAR VOLUME [9]: 58.34 fL; MONOCYTE [9]: 5.4%; NEUTROPHIL [9]: 39.7%; PLATELET COUNT [9]: 2275.2 x10E3/uL; ABSOLUTE BASOPHIL [10]: 270 cells/µL; ABSOLUTE EOSINOPHIL [10]: 150 cells/µL; ABSOLUTE LYMPHOCYTE [10]: 12500 cells/µL; ABSOLUTE MONOCYTE [10]: 620 cells/µL; ABSOLUTE SEGMENTED NEUTROPHIL [10]: 4220 cells/µL; BASOPHIL [10]: 1.34%; EOSINOPHIL [10]: 0.93%; ERYTHROCYTE COUNT [10]: 7.42 x10E6/uL; HEMATOCRIT [10]: 44.63%; LEUKOCYTE COUNT [10]: 17.89 x10E3/uL; LYMPHOCYTE [10]: 68.87%; MEAN CORPUSCULAR HEMOGLOBIN [10]: 18.83 pg; MEAN CORPUSCULAR HEMOGLOBIN CONCENTRATION [10]: 31.21 G/DL; MONOCYTE [10]: 3.41%
